Results: patent US5013542A, “Method to inhibit adhesion of disease-causing microorganisms to teeth” (Forsyth Dental Infirmary for Children, priority 1988, dated 1991)
Where no end group is shown, it is not given here.

Legend:
Test in all cases: Adhesion of radioactively labeled bacteria to treated hydroxyapatite (HA)
Type in all cases: cell-based
Actinomyces viscosus = test system: Actinomyces viscosus
Method: (§1) PRP-1 and PRP-1(Tl) were investigated for their abilities to promote adhesion of bacteria to HA. Essentially, the method is to treat HA samples with nothing (negative control), saliva (positive control), or the respective proteins or peptides. The excess agent is removed by washing, and suspensions of radioactively labeled bacteria are added to the treated HA. After a suitable time, the excess bacteria are removed by washing and those remaining adsorbed to the HA are counted in a scintillation counter. In the table of results, bacterial adsorption to saliva-treated HA is considered to be 100%, and adsorption to PRP-1 or PRP-1(Tl)-treated HA expressed as a percentage of this reference value. This approach is necessary because of the diverse behaviors of different bacteria.

Streptococcus sanguis = test system: Streptococcus sanguis
Method: as §1

Streptococcus mitis = test system: Streptococcus mitis
Method: as §1

Bacteroides gingivalis = test system: Bacteroides gingivalis
Method: as §1

Streptococcus mutans = test system: Streptococcus mutans
Method: as §1

[1] = HA treated with the protein/peptide, saliva-treated HA = 100%

For “PRP-1(T1): residues 1-30, highly acidic phosphoserine-containing amino-terminal segment of PRP-1 obtained by tryptic digestion at ARG(30) (QDLDEDVSQEDVPLVISDGGDSEQFIDEER; also: phosphoserine-containing, positions not given here; UniProt P02810 17-46, looked up, fragment)”, the “PERCENT ADHESION COMPARED TO SALIVA-TREATED HA” value (Actinomyces viscosus; [1]) was 17%, the “adhesion of organism to treated HA (in words)” value (“adhesion of organism” for short) (Actinomyces viscosus; versus saliva-treated HA) was “significantly and profoundly depressed” and the “adhesion of organism” value (Streptococcus sanguis; S. sanguis, versus saliva-treated HA) was “significantly and profoundly depressed”. The “PERCENT ADHESION COMPARED TO SALIVA-TREATED HA” value (Streptococcus sanguis; Streptococcus sanguis, HA treated with the protein/peptide, saliva-treated HA = 100%) was 4%, the “PERCENT ADHESION COMPARED TO SALIVA-TREATED HA” value (Streptococcus mitis; [1]) was 26% and the “adhesion of organism” value (Streptococcus mitis; versus saliva-treated HA) was “significantly and profoundly depressed”. For the same substance, the “adhesion of organism” value (Bacteroides gingivalis; B. gingivalis, versus saliva-treated HA) was “significantly and profoundly depressed”, the “PERCENT ADHESION COMPARED TO SALIVA-TREATED HA” value (Bacteroides gingivalis; Bacteroides gingivalis, HA treated with the protein/peptide, saliva-treated HA = 100%) was 20% and the “PERCENT ADHESION COMPARED TO SALIVA-TREATED HA” value (Streptococcus mutans; [1]) was 17%. For the same substance, the “adhesion of organism” value (Streptococcus mutans; versus saliva-treated HA) was “significantly and profoundly depressed”.
